Measured values taken from patent US20030079246A1, “Herbicide resistant plants” (priority 1999, published 2003).
Where a name gives a salt, the structure may show the parent alone.

Target: mutant form of rice EPSPS
Assay: EPSPS enzyme assay, inhibition of purified mutant rice EPSPS by glyphosate
Assay type: biochemical
From the text: The resultant products are gel purified and placed into a tube in eqi-molar concentrations to serve as a template for another round of PCRs with the rice 5′ and 3′ oligos. The resultant products are cloned into pCRBlunt II using Invitrogens Zero Blunt TOPO kit. It is confirmed that the DNA sequence of the insert and its predicted open reading frame correspond to that of the predicted mature chloroplastic rice EPSPS protein (with the exception of the presence of an initiating Met) and also that the desired changes (the specific mutation of T to I and P to S at specific positions in the EPSPS sequence) are encoded. The thus cloned and verified rice epsps sequence is excised using Nde 1 and Xho 1 and the purified fragment cloned into pET24a (Novagen) digested similarly. The recombinant clones are introduced into BL21 (DE3), a codon optimised RP strain of E.coli supplied by Strategene. The EPSPS protein is expressed in this strain following addition of 1 mM IPTG to the fermenter medium (LB supplemented with 100 ug/ml Kanamycin). […]

Compound `O=C(O)CNCP(=O)(O)O` [potassium salt of glyphosate] has an IC50 (at 40 μM PEP, 2 mM shikimate-3-Pi) of roughly 600 µM and a Ki (mutant EPSPS, read-out: estimated Ki value) of roughly 200 µM.
